The record followed here is ChEMBL document CHEMBL3526057 (Drug Metab Dispos, 2011).

This data set deals with Cytochrome P450 2C19 (Homo sapiens, UniProt P33261, F168L). The data set is described as follows: Activity of human recombinant CYP2C19 F168L mutant expressed in Saccharomyces cerevisiae BJ5457 assessed as omeprazole 5'-hydroxylation per pmol protein at 5 uM after 60 mins. The class given is ADME. The note with it: recombinant enzyme, 1 h.

Take `COc1ccc2[nH]c([S+]([O-])Cc3ncc(C)c(OC)c3C)nc2c1` (stereo unspecified) [OMEPRAZOLE]: the Drug metabolism is on record as 3.08 pmol/min.
